Experimental data taken from patent EP0118120A2, “1,4-Dihydropyridine compound” (priority 1983, dated 1984).

Experiments:
[1] = tested on: liver disorder induced by carbon tetrachloride; assay: Effect on liver disorder induced by carbon tetrachloride in rats, serum GOT, GPT, AlP, bilirubin (Example 26); format: in vivo, SLC-Wistar male rats
Procedure: (§1) Effect of the compounds according to the present invention on liver disorder induced by carbon tetrachloride
(§2) The effects of the sample compounds to be tested on hepatic disorder were evaluated by determining the levels of GOT, GPT, AlP, and bilirubin, which are known as an indicator of hepatic disorder, in serum, after administering carbon tetrachloride and the sample compounds to SLC-Wistar male rats (9 weeks old and body weight of 210 to 250 g in Tables 1, 3, and 4, and 10 weeks old and body weight of 230 to 260 g in Table 2) as follows.
(§3) Five rats were used in each test group. The sample compound (i.e., each compound listed below) was suspended at a concentration of 40 mg/ml in a 0.1% aqueous solution of Tween-80 (i.e., nonionic surfactant available from Atlas Powder Co., Ltd.). The resultant suspension was orally administered at a dose of 200 mg/kg each at 25 hours and 1 hour before the administration of carbon tetrachloride, except for the control group. For the control group to which only carbon tetrachloride was administered in the evaluation test, a 0.1% aqueous Tween-80 was orally administered at a dose of 5 ml/kg in the same manner.
(§4) Carbon tetrachloride was intraperiotoneally administered as a 10% olive oil solution at a dose of 5 ml/kg (0.5 ml/kg in terms of CC14) one hour after the final administration of the sample compound. For the control (normal) group, olive oil was intraperitoneally administered in the same manner at a dose of 5 ml/kg.
(§5) Blood samples were collected from the carotid artery under pentobarbital anesthesia, 24 hours after the administration of carbon tetrachloride. The rats were fasted for 18 to 22 hours before collecting the blood samples.
(§6) The determination of GOT and GPT in serum was carried out according to a UV method, the determination of AlP was carried cut according to Bessy-Lowry method, and the determination of bilirubin was carried out according to a diazo method.

[2] = Acute toxicity, oral LD50 in rats (Example 28); details: rat, in vivo, male rats 5 weeks old, 130 to 150 g, observed for one week
Description: Acute toxicity of the compounds according to the present invention

[3] = tested on: liver disorder induced by carbon tetrachloride; assay: Effect on liver disorder induced by carbon tetrachloride in rats, repeat with 8 weeks old rats (Example 27); format: in vivo, SLC-Wistar male rats; details: serum 24 hours after CCl4, 200 mg/kg orally x2, rats 8 weeks old
Procedure: as §2, §3, §4, §5, §6, §1
The evaluation tests of Example 26 were repeated except that SLC-Wistar male rats (8 weeks old and body weight of 170 to 210 g) were used.

[4] = Table 3, serum 24 hours after CCl4, 200 mg/kg orally x2, rats 9 weeks old, CCl4 only 0.38 ± 0.06, normal 0.22 ± 0.04
[5] = Table 3, serum 24 hours after CCl4, 200 mg/kg orally x2, rats 9 weeks old, CCl4 only 34.4 ± 2.6, normal 27.0 ± 0.5
[6] = Table 3, serum 24 hours after CCl4, 200 mg/kg orally x2, rats 9 weeks old, CCl4 only 9188 ± 1815, normal 30 ± 2
[7] = Table 3, serum 24 hours after CCl4, 200 mg/kg orally x2, rats 9 weeks old, CCl4 only 13189 ± 2205, normal 81 ± 3
[8] = Table 4, serum 24 hours after CCl4, 200 mg/kg orally x2, rats 9 weeks old, CCl4 only 0.38 ± 0.04, normal 0.10 ± 0.00
[9] = Table 4, serum 24 hours after CCl4, 200 mg/kg orally x2, rats 9 weeks old, CCl4 only 35.0 ± 2.0, normal 24.4 ± 0.7
[10] = Table 4, serum 24 hours after CCl4, 200 mg/kg orally x2, rats 9 weeks old, CCl4 only 10523 ± 2313, normal 31 ± 3
[11] = Table 4, serum 24 hours after CCl4, 200 mg/kg orally x2, rats 9 weeks old, CCl4 only 17704 ± 4140, normal 76 ± 4
[12] = Table 5, 170 to 210 g, CCl4 only 27875 ± 3628, normal 78 ± 3
[13] = Table 5, CCl4 only 0.55 ± 0.16, normal 0.10 ± 0.00
[14] = Table 5, CCl4 only 41.3 ± 2.5, normal 25.7 ± 0.4
[15] = Table 5, CCl4 only 12984 ± 1465, normal 30 ± 3
[16] = Table 1, serum 24 hours after CCl4 0.5 ml/kg i.p., compound 200 mg/kg orally 25 hours and 1 hour before CCl4, rats 9 weeks old, CCl4 only 17327 ± 2336, normal 76 ± 1
[17] = Table 1, serum 24 hours after CCl4, 200 mg/kg orally x2, rats 9 weeks old, CCl4 only 0.62 ± 0.30, normal 0.10 ± 0.00
[18] = Table 1, serum 24 hours after CCl4, 200 mg/kg orally x2, rats 9 weeks old, CCl4 only 35.5 ± 2.5, normal 23.6 ± 0.4
[19] = Table 1, serum 24 hours after CCl4, 200 mg/kg orally x2, rats 9 weeks old, CCl4 only 10496 ± 1221, normal 31 ± 2

CC(=O)C1=C(C)NC(C)=C(C(C)=O)C1C1=CSCCS1 [Sample Compound Q, 3,5-diacetyl-4-[2-(5,6-dihydro-1,4-dithiinyl)]-2,6-dimethyl-1,4-dihydropyridine]
Bilirubin [1, 4]: 0.26 ± 0.02 mg/dL | AlP [1, 5]: 29.8 ± 1.3 K-AU. | GPT [1, 6]: 1891 ± 357 K.U. | GOT [1, 7]: 2583 ± 540 K.U.

CC(=O)C1=C(C)NC(C)=C(C(C)=O)C1C1=COCCC1 [Sample Compound P, 3,5-diacetyl-4-[5-(3,4-dihydro-2H-pyranyl)]-2,6-dimethyl-1,4-dihydropyridine]
Bilirubin [1, 4]: 0.32 ± 0.02 mg/dL | AlP [1, 5]: 35.1 ± 1.4 K-AU. | GPT [1, 6]: 616 ± 193 K.U. | GOT [1, 7]: 899 ± 252 K.U.

CC(=O)C1=C(C)NC(C)=C(C(C)=O)C1C1=COCCO1 [Sample Compound L, 3,5-diacetyl-4-[2-(5,6-dihydro-p-dioxinyl)]-2,6-dimethyl-1,4-dihydropyridine]
Bilirubin [1, 8]: 0.22 ± 0.02 mg/dL | AlP [1, 9]: 34.2 ± 1.5 K-AU. | GPT [1, 10]: 285 ± 96 K.U. | GOT [1, 11]: 429 ± 113 K.U. | LD50 at 168 h [2]: > 1000 mg/kg

COCOC(=O)C1=C(C)N(COC)C(C)=C(C(=O)OCOC)C1C1=COCCO1 [Sample Compound S, bis(methoxymethyl) 4-[2-(5,6-dihydro-p-dioxinyl)]-1-methoxymethyl-2,6-dimethyl-1,4-dihydropyridine-3,5-dicarboxylate]
GOT [3, 12]: 461 ± 162 K.U. | Bilirubin [3, 13]: 0.10 ± 0.00 mg/dL | AlP [3, 14]: 26.3 ± 0.8 K-AU. | GPT [3, 15]: 313 ± 120 K.U.

COC(=O)C1=C(C)NC(C)=C(C#N)C1C1=COCCO1 (centres unmarked) [Sample Compound C, methyl 5-cyano-4-[2-(5,6-dihydro-p-dioxinyl)]-2,6-dimethyl-1,4-dihydropyridine-3-carboxylate]
GOT ([1]; Table 2, serum 24 hours after CCl4, 200 mg/kg orally x2, rats 10 weeks old, 230 to 260 g, CCl4 only 20701 ± 2821, normal 89 ± 12): 1447 ± 313 K.U. | Bilirubin ([1]; Table 2, serum 24 hours after CCl4, 200 mg/kg orally x2, rats 10 weeks old, CCl4 only 0.40 ± 0.09, normal 0.10 ± 0.00): 0.20 ± 0.00 mg/dL | AlP ([1]; Table 2, serum 24 hours after CCl4, 200 mg/kg orally x2, rats 10 weeks old, CCl4 only 32.3 ± 2.8, normal 22.7 ± 0.6): 31.7 ± 3.2 K-AU. | GPT ([1]; Table 2, serum 24 hours after CCl4, 200 mg/kg orally x2, rats 10 weeks old, CCl4 only 11034 ± 1354, normal 41 ± 3): 912 ± 198 K.U.

CC1=C(C(=O)OC(C)C)C(C2=COCCO2)C(C(=O)OC(C)C)=C(C)N1 [Sample Compound G]
Bilirubin [1, 8]: 0.22 ± 0.02 mg/dL | AlP [1, 9]: 31.5 ± 1.2 K-AU. | GPT [1, 10]: 2994 ± 638 K.U. | GOT [1, 11]: 3482 ± 707 K.U.

CC(=O)C1=C(C)NC(C)=C(C(C)=O)C1C1=C(C)OCCO1 [Sample Compound W, 3,5-diacetyl-2,6-dimethyl-4-[2-(3-methyl-5,6-dihydro-p-dioxinyl)]-1,4-dihydropyridine]
Bilirubin ([3]; Table 6, CCl4 only 0.50 ± 0.08, normal 0.12 ± 0.02): 0.20 ± 0.00 mg/dL | AlP ([3]; Table 6, CCl4 only 52.5 ± 2.2, normal 36.3 ± 1.6): 49.5 ± 3.0 K-AU. | GPT ([3]; Table 6, CCl4 only 12606 ± 1688, normal 39 ± 4): 805 ± 195 K.U. | GOT ([3]; Table 6, CCl4 only 23424 ± 3360, normal 79 ± 2): 1194 ± 234 K.U.

COC(=O)C1=C(C)NC(C)=C(C(=O)OC(C)C)C1C1=COCCO1 (centres unmarked) [Sample Compound K, isopropyl methyl 4-[2-(5,6-dihydro-p-dioximyl)]-2,6-dimethyl-1,4-dihydropyridine-3,5-dicarboxylate]
Bilirubin [1, 8]: 0.24 ± 0.02 mg/dL | AlP [1, 9]: 29.6 ± 0.8 K-AU. | GPT [1, 10]: 1657 ± 436 K.U. | GOT [1, 11]: 2290 ± 619 K.U.

CC(=O)C1=C(C)NC(C)=C(C#N)C1C1=COCCO1 (centres unmarked) [Sample Compound B, 3-acetyl-5-cyano-4-[2-(5,6-dihydro-p-dioxinyl)]-2,6-dimethyl-l,4-dihydropyridine]
GOT [1, 16]: 1604 ± 569 K.U. | Bilirubin [1, 17]: 0.20 ± 0.00 mg/dL | AlP [1, 18]: 34.1 ± 3.4 K-AU. | GPT [1, 19]: 1023 ± 368 K.U.

COCC(C)OC(=O)C1=C(C)NC(C)=C(C(=O)OC(C)COC)C1C1=COCCO1 (centres unmarked) [Sample Compound D, bis(1-methyl-2-methoxyethyl) 4-[2-(5,6-dihydro-p-dioxinyl)]-2,6-dimethyl-l,4-dihydropyridine-3,5-dicarboxylate]
GOT [1, 16]: 2572 ± 518 K.U. | Bilirubin [1, 17]: 0.20 ± 0.00 mg/dL | AlP [1, 18]: 31.0 ± 1.5 K-AU. | GPT [1, 19]: 2050 ± 419 K.U.

COC(=O)C1=C(C)NC(C)=C(C(=O)OC)C1C1=C(C)OC(C)CO1 (centres unmarked) [Sample Compound T, dimethyl 2,6-dimethyl-4-[2-(3,5-dimethyl-5,6-dihydro-p-dioxinyl)] -1,4-dihydropyridine-3,5-dicarbcxylate]
GOT [3, 12]: 5538 ± 954 K.U. | Bilirubin [3, 13]: 0.25 ± 0.03 mg/dL | AlP [3, 14]: 34.4 ± 1.7 K-AU. | GPT [3, 15]: 4156 ± 196 K.U.

COCOC(=O)C1=C(C)NC(C)=C(C(=O)OCOC)C1C1=C(C)OC(C)CO1 (centres unmarked) [Sample Compound U, bis (methcxymethyl) 2,6-dimethyl-4-[2-(3,5-dimethyl-5,6-dihydro-p-dioxinyl)]-1,4-dihydropyridine-3,5-dicarboxylate]
GOT [3, 12]: 608 ± 214 K.U. | Bilirubin [3, 13]: 0.10 ± 0.00 mg/dL | AlP [3, 14]: 27.0 ± 1.0 K-AU. | GPT [3, 15]: 384 ± 135 K.U.

COCCOC(=O)C1=C(C)NC(C)=C(C(=O)OCCOC)C1C1=COCCO1 [Sample Compound J, bis (2-methoxyethyl) 4-[2-(5,6-dihydro-p-dioxinyl)]-2,6-dimethyl-1,4-dihydropyridine-3,5-dicarboxylate]
Bilirubin [1, 8]: 0.18 ± 0.03 mg/dL | AlP [1, 9]: 27.4 ± 2.6 K-AU. | GPT [1, 10]: 626 ± 179 K.U. | GOT [1, 11]: 807 ± 211 K.U. | LD50 at 168 h [2]: > 1000 mg/kg

COC(=O)C1=C(C)NC(C)=C(C(C)=O)C1C1=COCCO1 (centres unmarked) [Sample Compound M, methyl 5-acetyl-4-[2-(5,6-dihydro-p-dioxinyl)]-2,6-dimethyl-l,4-dihydropyridine-3-carboxylate]
Bilirubin [1, 8]: 0.20 ± 0.00 mg/dL | AlP [1, 9]: 29.1 ± 1.1 K-AU. | GPT [1, 10]: 428 ± 88 K.U. | GOT [1, 11]: 807 + 176 K.U.

COCCOC(=O)C1=C(C)NC(C)=C(C(C)=O)C1C1=COCCO1 (centres unmarked) [Sample Compound N, 2-methoxyethyl 5-acetyl-4-[2-(5,6-dihydro-p-dioxinyl)]-2,6-dimethyl-1,4-dihydropyridine-3-carboxylate]
Bilirubin [1, 8]: 0.18 ± 0.02 mg/dL | AlP [1, 9]: 28.5 ± 1.7 K-AU. | GPT [1, 10]: 2860 ± 858 K.U. | GOT [1, 11]: 3430 ± 922 K.U.
